# Assay results reported in patent US20080125447A1, “Combination Therapy” (priority 2004, published 2008).
# System: Calu-6 tumour xenograft
# Test: Calu-6 tumour xenograft in vivo solid tumour model
# Conditions: once-daily oral, 28 days
smiles,measurement,setting,value
"COc1cc2c(Oc3ccc4[nH]c(C)cc4c3F)ncnc2cc1OCCCN1CCCC1 [AZD2171, 4-(4-fluoro-2-methyl-1H-indol-5-yloxy)-6-methoxy-7-(3-(pyrrolidin-1-yl)propoxy)quinazoline]",inhibition of Calu-6 tumour xenograft growth,"1.5 mg/kg/day, P<0.01 one-tailed t test",49%
same,inhibition of Calu-6 tumour xenograft growth,"3 mg/kg/day, P<0.0001 one-tailed t test",69%
same,inhibition of Calu-6 tumour xenograft growth,"6 mg/kg/day, P<0.0001 one-tailed t test",91%
